Article PMC6175411, “Reversible optical control of F1Fo‐ATP synthase using photoswitchable inhibitors” (Febs Letters, 2018)

Target: T1, Yarrowia lipolytica F1Fo-ATP synthase (YF1Fo), monomeric (Yarrowia lipolytica, UniProt Q6C326+Q6C338+Q6CFT7)
T1 construct: gene ATP1; complete, genetically unmodified native F1Fo holoenzyme, monomeric form, solubilised in DDM from Y. lipolytica mitochondria; PEG precipitation, glycerol gradient, anion exchange; remaining Fo and peripheral stalk subunits also present; with ATP synthase subunit delta, mitochondrial; ATP synthase subunit epsilon, mitochondrial; ATP synthase subunit 9, mitochondrial (subunit c); ATP synthase subunit a
Assay: malachite green ATP hydrolysis assay
Type: biochemical

T1 sequence (Q6C326 25-536): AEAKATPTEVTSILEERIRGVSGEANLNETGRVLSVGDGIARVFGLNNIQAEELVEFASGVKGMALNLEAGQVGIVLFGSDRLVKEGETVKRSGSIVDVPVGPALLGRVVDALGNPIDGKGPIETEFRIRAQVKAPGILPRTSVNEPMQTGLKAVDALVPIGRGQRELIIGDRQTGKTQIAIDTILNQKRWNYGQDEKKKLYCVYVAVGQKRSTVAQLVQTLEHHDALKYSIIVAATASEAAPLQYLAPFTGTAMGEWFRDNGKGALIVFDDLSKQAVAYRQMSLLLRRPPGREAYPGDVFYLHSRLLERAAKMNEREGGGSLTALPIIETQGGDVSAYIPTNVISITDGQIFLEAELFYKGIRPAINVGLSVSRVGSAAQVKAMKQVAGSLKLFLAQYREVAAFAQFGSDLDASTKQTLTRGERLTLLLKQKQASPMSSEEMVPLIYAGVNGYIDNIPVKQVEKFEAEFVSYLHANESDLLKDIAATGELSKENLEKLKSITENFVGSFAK
T1 sequence (Q6CFT7 33-509): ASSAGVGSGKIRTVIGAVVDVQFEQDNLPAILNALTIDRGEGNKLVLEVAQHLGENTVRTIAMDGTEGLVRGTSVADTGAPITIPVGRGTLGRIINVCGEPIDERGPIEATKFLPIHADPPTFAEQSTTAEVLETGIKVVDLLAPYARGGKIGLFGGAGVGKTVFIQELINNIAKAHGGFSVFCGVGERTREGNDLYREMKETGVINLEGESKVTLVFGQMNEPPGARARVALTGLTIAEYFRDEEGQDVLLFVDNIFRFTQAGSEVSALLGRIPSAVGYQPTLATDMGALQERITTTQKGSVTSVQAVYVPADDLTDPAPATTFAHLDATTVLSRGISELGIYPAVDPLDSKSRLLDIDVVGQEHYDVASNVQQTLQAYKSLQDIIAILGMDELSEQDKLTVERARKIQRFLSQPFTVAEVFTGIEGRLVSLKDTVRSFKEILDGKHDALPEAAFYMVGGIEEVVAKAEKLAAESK
T1 sequence (Q6C338 22-293): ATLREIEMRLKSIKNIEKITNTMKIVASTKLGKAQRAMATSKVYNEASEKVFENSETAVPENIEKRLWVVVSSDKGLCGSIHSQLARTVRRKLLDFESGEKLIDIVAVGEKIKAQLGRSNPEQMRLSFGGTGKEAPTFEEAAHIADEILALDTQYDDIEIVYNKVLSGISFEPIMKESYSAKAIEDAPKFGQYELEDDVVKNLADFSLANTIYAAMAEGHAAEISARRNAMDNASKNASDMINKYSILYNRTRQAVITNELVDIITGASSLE
T1 sequence (Q6C877 25-162 partner): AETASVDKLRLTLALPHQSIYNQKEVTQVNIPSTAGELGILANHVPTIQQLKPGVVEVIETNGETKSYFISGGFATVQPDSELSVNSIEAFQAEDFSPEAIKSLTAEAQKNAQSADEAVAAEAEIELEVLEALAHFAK
T1 sequence (Q37695 whole entry partner): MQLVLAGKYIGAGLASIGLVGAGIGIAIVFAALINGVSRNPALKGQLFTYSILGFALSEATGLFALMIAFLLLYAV

Compound | IC50 [µM]
Oc1ccc(/N=N/c2cc(O)cc(O)c2)cc1 [PIAS-1, 5‐((4‐hydroxyphenyl)diazenyl)benzene‐1,3‐diol] | 140 ± 56.6
COc1cc(/N=N/c2ccc(O)cc2)cc(OC)c1 [PIAS-2, 4‐((3,5‐dimethoxyphenyl)diazenyl)phenol] | > 200
COc1cc(/N=N/c2ccc(O)c(OC)c2)cc(OC)c1 [PIAS-3, 4‐((3,5‐dimethoxyphenyl)diazenyl)‐2‐methoxyphenol] | > 200
Oc1cc(O)cc(/N=N/c2ccc(O)c(O)c2)c1 [PIAS-4, 4‐((3,5‐dihydroxyphenyl)diazenyl)benzene‐1,2‐diol] | 14 ± 2.7
Oc1ccc(/C=C/c2cc(O)cc(O)c2)cc1 [resveratrol] | 185 ± 17.7
